In US20250382588A1, “CHIMERIC AAV AND USES THEREOF” (priority 2023, published 2025):

Tests used:
[1] = Rotation behavior after nigral EYFP control AAV and CNO; assay type: in vivo, mice; conditions: for rotation behavior (FIG. 6C): AAV8R12-G88P3-EYFP; for rotation behavior (FIG. 6C) / rotation behavior (FIG. 7C): n=5; for rotation behavior (FIG. 7C): AAV8R12-G88P7-EYFP
Method: Mice were anesthetized with sodium pentobarbital (Nembutal; 80 mg/kg, i.p.), and then placed into a stereotaxic device (KOPF). Eye cream was applied on both corneas to avoid dehydration. The skull above the targeted areas was thinned with a dental drill and carefully removed. Injections were conducted with a 10 μL syringe connected to a 33-Gauge needle (Neuros; Hamilton), using a microsyringe pump (Legato 130, KD Scientific). A total volume of 200 nL virus was injected into the SNr at a speed of 20 nL/min. The coordinates for the SNr were 3.4 mm posterior, 1.3 mm lateral, 4.8 mm ventral to the bregma.
Mice that were used in the behavioral experiments were then implanted with guide cannulas (KOPF) unilaterally aiming at the dorsomedial striatum (0.5 mm anterior, 1.5 mm lateral, 3.5 mm ventral to the bregma). The cannulas were fixed to the skull with dental cement. Stainless steel obturators were inserted into the guide cannulas and were replaced every other day to maintain the patency until infusions were made. Mice were allowed to recover from the surgery for at least 3 weeks before further studies.
Mice were individually handled for 10-20 seconds per day for at least 5 days to habituate them to the experimenter. The open field test was conducted in a test apparatus (50 cm×50 cm×50 cm) with an HD digital camera (Sony) positioned above the arena. On day one, mice were habituated to the apparatus for 10 minutes. On day 2, mice were administrated saline (0.1 mL i.p. or 200 nL intracranially [i.c.] through the guide cannulas). On day 3, mice were administrated with Clozapine-N-oxide (CNO, Hello Bio, HB1807; 0.3 mg/kg i.p. or 200 nL at 100 μM i.e.). All behavioral tests were conducted 30 minutes after injection. During the test, mice were allowed to freely explore the apparatus for 10 minutes. The behavioral data were analyzed with ANY-maze software (Stoelting Co.).

hM3Dq or rM3Ds = assay: Locomotion test after nigral DREADD AAV and CNO in macaques; assay type: in vivo
Method: To guide the virus injection in SNr, a guide grid of multiple holes spaced by 1 mm was installed on each subject vertically above the SN. By filling vitamin E in these holes, the accurate coordinates for injection could be obtained from the T1-weighted MRI images (3T Tim Trio scanner, Siemens). Virus injections were performed in nine sites covering the whole SNr, and a total volume of 27 μL virus was unilaterally injected in the right SNr at the speed of 300 nL/min.
To intracranially administrate drug and/or perform electrophysiological recording, a recording chamber covering from anterior caudate to posterior GPi was fixed on the skull with 6 titanium screws and dental cement. Each subject was allowed to recover from the surgery for at least 6 weeks prior to further studies.
The locomotion tests for monkeys were conducted in a custom-made observation cage (100 cm×100 cm×100 cm). The top and front of the cage were made of toughened glass in order to gain a clear view for behavioral recording. Monkeys were habituated to the observation cage by placing them inside for 30 minutes on three separate days.
For monkeys injected with AAV8R12-G88P3-HA-hM3Dq, CNO was intracranially infused into the dorsomedial caudate through the recording chamber. To infuse while the animal was awake, the monkey was trained to sit in a primate chair specially designed with its head fixed to the primate chair by a mask made of thermoplastic materials. Injections were conducted through a 33-Gauge needle connected to a 250 μL syringe via a polyethylene pipe (Hamilton, Neuros). […] The needle was held for 5 minutes for drug diffusion before retraction. […] Videos capturing the subjects' behavior were recorded for at least 90 minutes. Animal behaviors from 30-90 minutes after saline/CNO infusion were further analyzed and quantified.
For rotation analysis, only movements that occurred lower than 30 cm on the z-axis were counted. To determine the direction of the rotation, we first computed the center for the rotation data in the x-y plane as (x0, y0) by averaging all data points, and then we computed the angle relative to (x0, y0) for each time point by the following formula:
where θi represents the rotating angle at time i, and (xi, yi) represents the x-y coordinate at time i. We then calculated the change of rotating angle as Δθi=θi−θi-1. For right nigral injections, when Δθ<0, the direction of the rotation was anticlockwise and was labeled as a contraversive rotation. When Δθ>0, the direction of the rotation was clockwise and was labeled as an ipsiversive rotation. The raw data were analyzed and plotted through a custom R package. Code is available on Github (github.com/chenyef/PD_ana/blob/main/Behavior_ana.txt).

hM3Dq = target: T1, hM3Dq (Homo sapiens, UniProt P20309, A239G/Y149C); assay: Electrophysiological recording in caudate after CNO infusion, AAV8R12-G88P3-HA-hM3Dq macaques; assay type: in vivo
T1 construct: HA (N); expressed in transfected cells; host or cells: neurons (striatal D1-MSNs, some SNr neurons) of C57BL/6J mice or cynomolgus macaques transduced by nigral AAV8R12-G88P3-HA-hM3Dq
Method: Electrophysiological recording was performed through a recording chamber while the monkey was anesthetized. Neural responses were recorded by a 16-channel linear probe (Plexon Inc, Uprobe) driven by a mechanical microdrive (Alpha Omega, FlexMT). Signals were passed through a head stage (Plexon Inc, HST/16V-G20 LN) and then split and filtered between 300 Hz and 5 kHz to identify spiking activity with an amplifier system (Plexon Inc, OmniPlex). Detected spikes were then sorted by commercially available software (Plexon Inc, Offline Sorter) for further analysis. To quantify the effect of CNO/DCZ injection, neural activity was recorded for 60 minutes following CNO/DCZ injection. The response time-course for each channel was obtained by counting the spikes within every 10-minute window and then normalizing to the maximal.
To determine the effect of CNO/DCZ injection on the direction of signal change, we performed Pearson correlation between neural responses and time using the ‘corr’ function in Matlab, which generates the correlation coefficient ‘r’ and significant level ‘p’. A neuron was considered to have “Increased” activity when r>0 and p<[…]; and considered to have “Decreased” activity when r<0 and p<0.05. Otherwise, neurons were considered to be “Unchanged” in their neural activities. The responses of all increased neurons were then averaged after being normalized by the maximal response (Crowe et al., 2014; Dai and Wang, 2018; Hirokawa et al., 2019) following CNO/DCZ injection, and then plotted as a function of time to generate the normalized population response.

[2] = intracranial or systemic CNO, n=4
[3] = monkey CM045, 34 cells in caudate

T1 sequence (P20309 whole entry Y149C/A239G, the tested form may be a part): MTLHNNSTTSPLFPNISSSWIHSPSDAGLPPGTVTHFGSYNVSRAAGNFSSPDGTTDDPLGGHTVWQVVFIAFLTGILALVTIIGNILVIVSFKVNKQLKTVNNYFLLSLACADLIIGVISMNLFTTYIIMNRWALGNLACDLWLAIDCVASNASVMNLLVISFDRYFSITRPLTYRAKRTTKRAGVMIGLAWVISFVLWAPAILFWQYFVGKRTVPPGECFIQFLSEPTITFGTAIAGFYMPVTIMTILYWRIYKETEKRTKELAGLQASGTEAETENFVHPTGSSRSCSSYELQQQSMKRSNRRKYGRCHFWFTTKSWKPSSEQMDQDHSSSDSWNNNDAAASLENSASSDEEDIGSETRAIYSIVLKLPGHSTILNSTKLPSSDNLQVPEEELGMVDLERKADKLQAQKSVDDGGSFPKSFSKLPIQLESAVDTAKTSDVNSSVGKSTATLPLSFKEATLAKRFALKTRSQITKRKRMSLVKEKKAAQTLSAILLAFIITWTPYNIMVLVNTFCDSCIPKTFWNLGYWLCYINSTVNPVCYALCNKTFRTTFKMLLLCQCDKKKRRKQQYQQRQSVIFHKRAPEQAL

With C[N+]1([O-])CCN(C2=Nc3cc(Cl)ccc3Nc3ccccc32)CC1 [CNO, clozapine N-oxide] the “rotation behavior (FIG. 6C)” value ([1]; CNO i.p.) was 44.72±10.89, the “rotation behavior (FIG. 6C)” value ([1]; CNO intracranial) was 61.39±5.774 and the “rotation behavior (FIG. 7C)” value ([1]; CNO i.p.) was 46.88±7.497. For the same compound, the “rotation behavior (FIG. 7C)” value ([1]; CNO intracranial) was 34.55±7.536, the “rotational behaviors, in words” value ([1]; animals that received the EYFP control vector named at the place) was “didn't induce rotational behaviors” and the “muscle tone of the contralateral biceps brachii (electromyogram)” value (hM3Dq or rM3Ds; following CNO infusions) was “an increase in the muscle tone”. For the same compound, the “immobile time (FIG. 10E)” value (hM3Dq or rM3Ds; [2]) was 89.13±8.379, the “speed during contraversive rotations (FIG. 10G)” value (hM3Dq or rM3Ds; [2]) was 46.98±6.669 and the “total distance (FIG. 10F)” value (hM3Dq or rM3Ds; [2]) was 97.37±19.41. The “velocity of ipsiversive rotations (FIG. 10H)” value (hM3Dq or rM3Ds; [2]) was 41.37±6.566, the “cells activated (FIG. 12L)” value (hM3Dq; 34 total cells in the caudate) was 67.6% and the “cells inactivated (FIG. 12L)” value (hM3Dq; 34 total cells in the caudate) was 2.9%. The “cells unchanged (FIG. 12L)” value (hM3Dq; 34 total cells in the caudate) was 29.4%, the “cells activated (FIG. 12C)” value (hM3Dq; [3]) was 70.6% and the “cells inactivated (FIG. 12C)” value (hM3Dq; [3]) was 8.8%. For the same compound, the “cells unchanged (FIG. 12C)” value (hM3Dq; [3]) was 20.6%.
